# pIC50: −log10 of the molar value.
# Tests used:
# [1] = target: HSV-1 ribonucleotide reductase (Human alphaherpesvirus 1 strain 17, UniProt P08543+P10224); experiment: HSV-1 ribonucleotide reductase inhibition (reduction of CDP); assay type: biochemical, herpes simplex virus type 1 (strain F); settings: for selective inhibition of the viral (HSV-1) ribonucleotide reductase over the cellular ribonucleotide reductase: HSV-1 versus hamster 96-V-2(600) ribonucleotide reductase
# [2] = target: T1, hamster 96-V-2(600) ribonucleotide reductase (Cricetulus griseus, UniProt G3I2K8+G3I3B7); experiment: Hamster 96-V-2(600) ribonucleotide reductase inhibition (reduction of CDP); assay type: biochemical, Chinese hamster; settings: partially purified enzyme 40 μg, in the presence of adenosine triphosphate (4 mM) and magnesium chloride (11.5 mM)
# T1 construct: obtained from an overproducing strain of a Chinese hamster lung cell line; endogenous in cells; host or cells: overproducing strain 96-V-2(600) of a Chinese hamster lung cell line; partially purified
# T1 sequence (G3I2K8 entry or part of it): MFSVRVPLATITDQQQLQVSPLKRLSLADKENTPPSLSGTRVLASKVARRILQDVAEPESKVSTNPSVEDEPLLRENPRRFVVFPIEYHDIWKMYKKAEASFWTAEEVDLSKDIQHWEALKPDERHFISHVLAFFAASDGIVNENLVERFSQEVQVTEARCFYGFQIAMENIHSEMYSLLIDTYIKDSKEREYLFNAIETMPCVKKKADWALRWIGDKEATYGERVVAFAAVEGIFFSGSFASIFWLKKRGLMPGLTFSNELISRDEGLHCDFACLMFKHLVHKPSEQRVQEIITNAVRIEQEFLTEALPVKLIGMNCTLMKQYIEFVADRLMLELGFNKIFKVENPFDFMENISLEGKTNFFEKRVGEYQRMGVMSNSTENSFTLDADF
# T1 sequence (G3I3B7 entry or part of it): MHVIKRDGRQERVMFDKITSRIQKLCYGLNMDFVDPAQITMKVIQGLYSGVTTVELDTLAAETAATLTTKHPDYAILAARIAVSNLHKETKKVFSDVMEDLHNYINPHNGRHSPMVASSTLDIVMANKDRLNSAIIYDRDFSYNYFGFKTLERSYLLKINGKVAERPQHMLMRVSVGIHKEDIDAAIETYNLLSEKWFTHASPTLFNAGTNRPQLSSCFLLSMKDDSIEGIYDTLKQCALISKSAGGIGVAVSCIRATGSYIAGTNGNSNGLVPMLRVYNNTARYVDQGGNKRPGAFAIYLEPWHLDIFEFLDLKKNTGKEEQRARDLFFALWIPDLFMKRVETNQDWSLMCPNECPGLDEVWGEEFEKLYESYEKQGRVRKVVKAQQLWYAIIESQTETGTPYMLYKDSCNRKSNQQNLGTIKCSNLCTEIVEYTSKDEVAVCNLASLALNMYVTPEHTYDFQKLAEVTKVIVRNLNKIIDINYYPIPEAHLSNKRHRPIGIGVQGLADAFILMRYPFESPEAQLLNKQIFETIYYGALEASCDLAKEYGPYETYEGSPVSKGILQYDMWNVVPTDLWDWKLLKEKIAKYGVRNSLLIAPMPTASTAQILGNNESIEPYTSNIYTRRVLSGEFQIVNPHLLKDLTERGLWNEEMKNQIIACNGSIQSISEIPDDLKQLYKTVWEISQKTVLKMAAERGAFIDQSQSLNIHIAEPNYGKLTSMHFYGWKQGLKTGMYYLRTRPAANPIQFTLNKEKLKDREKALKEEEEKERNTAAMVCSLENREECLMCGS
# Experimental: Hamster 96-V-2(600) ribonucleotide reductase (partially purified) was obtained from an overproducing strain of a Chinese hamster lung cell line as described by W. H. Lewis and P. R. Srinivasan, Mol. Cell Biol., 3, 1053 (1983).
# Samples of the HSV-1 ribonucleotide reductase (65 μg with a specific activity of 26 units per mg) were mixed with increasing concentrations of the test compound, i.e. the naphthalene noted in the title of this example, in a series of tubes. Ribonucleotide reductase activity was assayed by monitoring the reduction of cytidine diphosphate (CDP) as described by Cohen et al., supra. The standard reaction mixture, in a final volume of 60 μl, contained: 50 mM, N-2-hydroxyethylpiperazine-N'-2-ethanesulfonic acid (pH 7.8); 4 mM NaF, 30 mM DL-dithiothreitol (DTT); 1 mM bacitracin, 54 μM CDP and 0.25 μCi of [^3 H]CDP. After 30 minutes of incubation at 37° C., the reaction was stopped by immersing the tube in boiling water for 4 minutes. The precipitate was removed by centrifugation. Nucleotides in the supernatant were converted to nucleosides by enzymatic hydrolysis. The deoxyribonucleosides were subsequently separated from the ribonucleosides by ascending polyethyleneimine-celulose chromatography. […] The results, shown in FIGURE 1, are expressed as a percentage of the activity obtained in the controls.
# HSV-1 ribonucleotide reductase, sequence (P08543 whole entry): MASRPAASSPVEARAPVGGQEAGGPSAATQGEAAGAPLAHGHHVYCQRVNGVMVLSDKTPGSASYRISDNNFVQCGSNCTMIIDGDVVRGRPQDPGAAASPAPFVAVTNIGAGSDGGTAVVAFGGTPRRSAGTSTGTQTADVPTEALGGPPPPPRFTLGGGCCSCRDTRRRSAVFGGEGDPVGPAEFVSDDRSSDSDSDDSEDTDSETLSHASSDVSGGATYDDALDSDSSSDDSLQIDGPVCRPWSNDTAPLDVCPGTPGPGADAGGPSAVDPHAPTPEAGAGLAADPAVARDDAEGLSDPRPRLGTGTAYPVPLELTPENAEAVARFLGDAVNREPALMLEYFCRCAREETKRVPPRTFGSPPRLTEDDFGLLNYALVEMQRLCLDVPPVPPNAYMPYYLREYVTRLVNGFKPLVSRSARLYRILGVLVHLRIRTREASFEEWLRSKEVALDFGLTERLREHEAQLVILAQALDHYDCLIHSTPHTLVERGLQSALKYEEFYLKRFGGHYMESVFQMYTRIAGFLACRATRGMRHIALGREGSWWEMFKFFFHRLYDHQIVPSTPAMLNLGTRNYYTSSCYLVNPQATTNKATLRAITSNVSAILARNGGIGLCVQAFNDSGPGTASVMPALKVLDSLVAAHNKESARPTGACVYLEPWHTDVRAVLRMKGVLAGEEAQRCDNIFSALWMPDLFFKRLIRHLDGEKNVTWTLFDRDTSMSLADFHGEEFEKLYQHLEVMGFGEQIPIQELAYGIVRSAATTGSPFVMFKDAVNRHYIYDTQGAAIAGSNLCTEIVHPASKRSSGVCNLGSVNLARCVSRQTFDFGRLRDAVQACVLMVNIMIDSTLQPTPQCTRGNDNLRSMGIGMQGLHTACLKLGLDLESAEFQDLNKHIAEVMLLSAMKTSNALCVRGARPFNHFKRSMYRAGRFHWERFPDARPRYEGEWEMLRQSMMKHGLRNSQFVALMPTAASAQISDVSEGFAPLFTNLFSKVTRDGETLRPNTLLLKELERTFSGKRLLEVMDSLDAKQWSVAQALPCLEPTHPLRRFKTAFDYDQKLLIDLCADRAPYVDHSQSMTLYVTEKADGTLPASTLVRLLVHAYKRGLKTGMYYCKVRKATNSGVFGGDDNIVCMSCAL
# HSV-1 ribonucleotide reductase, sequence (P10224 whole entry): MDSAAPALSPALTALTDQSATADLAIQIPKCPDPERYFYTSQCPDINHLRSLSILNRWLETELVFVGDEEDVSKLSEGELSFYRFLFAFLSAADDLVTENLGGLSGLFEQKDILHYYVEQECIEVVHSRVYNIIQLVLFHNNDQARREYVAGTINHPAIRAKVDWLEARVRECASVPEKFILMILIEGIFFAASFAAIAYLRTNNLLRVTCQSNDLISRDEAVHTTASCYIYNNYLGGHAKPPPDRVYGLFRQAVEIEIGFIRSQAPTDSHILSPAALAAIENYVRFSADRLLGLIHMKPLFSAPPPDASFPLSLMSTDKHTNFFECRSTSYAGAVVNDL
Compound,selective inhibition of the viral (HSV-1) ribonucleotide reductase over the cellular ribonucleotide reductase [1],"inhibitory effect of increasing concentrations on HSV-1 ribonucleotide reductase activity (FIG. 1, percentage of control activity) ([1]; increasing concentrations of the test compound)",pIC50 [2]
"COC1=C(OC)C(=O)c2cc(OC)ccc2C1=O [2,3,6-trimethoxy-1,4-naphthalenedione]",selective inhibition,–,–
"COC1=C(OC)C(=O)c2ccccc2C1=O [2,3-dimethoxy-1,4-naphthalenedione]",selective inhibition,–,–
"COC1=C(OC)C(=O)c2cc(Cl)ccc2C1=O [6-Chloro-2,3-dimethoxy-1,4-naphthalenedione]",selective inhibition,progressively greater inhibitory effect,< 3.60
"CCOC1=C(OCC)C(=O)c2cc(Cl)ccc2C1=O [6-chloro-2,3-diethoxy-1,4-naphthalenedione]",selective inhibition,–,–
"CCCOC1=C(OCCC)C(=O)c2cc(Cl)ccc2C1=O [6-chloro-2,3-dipropoxy-1,4-naphthalenedione]",selective inhibition,–,–
"COC1=C(OC)C(=O)c2cc(C#N)ccc2C1=O [6-cyano-2,3-dimethoxy-1,4-naphthalenedione]",selective inhibition,–,–

# Reference: US5314914A, “Methods and compositions for combatting herpes viruses” (BioMega/Boehringer Ingelheim Research Inc., priority 1988, dated 1994)
